One block for each compound: values may come before it.
Legend:
[1] = literature studies (Cellai et al. 1983; Viscomi et al. 2008); cited from earlier work
[2] = Solid-state change of Rifaximin α form on wet granulation with purified water; type: physicochemical; conditions: purified water as binding agent
[3] = Solid-state stability of the α/β ratio after dry granulation and tableting, DRX (powder); type: physicochemical; conditions: tablets before coating, ground in a mortar

Compound: Rifaximin [δ]
Absorption from the intestine [1]: could be significantly absorbed

Amount of Rifaximin β form afforded by wet granulation [2]: < 50%
Compound: CO[C@H]1/C=C/O[C@@]2(C)Oc3c(C)c(O)c4c(O)c(c5c(nc6cc(C)ccn65)c4c3C2=O)NC(=O)/C(C)=C\C=C\[C@H](C)[C@H](O)[C@@H](C)[C@@H](O)[C@@H](C)[C@H](OC(C)=O)[C@@H]1C [Rifaximin α form, Rifaximin]

Relative ratio between the α/β polymorphic form after dry granulation and tableting [3]: stable
Compound: Rifaximin [Rifaximin α/β polymorphic mixture 88/12]
